{
  "source": "patent US20080317753A1",
  "about": "“SELECTING PATIENTS FOR THERAPY WITH A HER INHIBITOR” (GENENTECH, INC., priority 2004, published 2008)",
  "origin": "cited, not measured here",
  "key": {"[1]": {"settings": "single agent"}, "[2]": {"test_system": "HER2-overexpressing metastatic breast cancers", "settings": "patients with HER2-overexpressing metastatic breast cancers with extensive prior anti-cancer therapy"}, "[3]": {"settings": "combined with gemcitabine in several combinations of different chemotherapies, phase II trials"}},
  "note": "Where a name gives a salt, the structure may show the parent alone.",
  "data": [
    {"compound": "Nc1ccn([C@@H]2O[C@H](CO)[C@@H](O)C2(F)F)c(=O)n1", "note": "[gemcitabine, 2′-deoxy-2′,2′-difluorocytidine monohydrochloride (b-isomer)]", "values": [
      {"measurement": "nausea and vomiting, combined incidence", "setting": "[1]", "value": 69, "unit": "%"}
    ]},
    {"compound": "trastuzumab: recombinant humanized version of murine HER2 antibody 4D5; light and heavy chain sequences SEQ ID NOS. 15 and 16", "values": [
      {"measurement": "clinical activity", "setting": "[2]", "value": "clinically active"},
      {"measurement": "tolerability", "setting": "[3]", "value": "well tolerated with no observed cardiac or unexpected toxicities"}
    ]}
  ]
}
